Experimental findings from patent US12150940B2, “WASp-protecting small molecules, compositions, methods and uses thereof in the treatment of innate and acquired immune-related disorders or conditions” (BAR ILAN UNIVERSITY, priority 2016, dated 2024) are described below.

The test system of one assay is WASp. Kind of assay: WASp ubiquitylation in Meg-01 cells (immunoprecipitation, anti-ubiquitin blot). It is filed as cell-based, human. Particulars: Meg-01 cells after activation, treated vs untreated. The protocol:
Freshly-isolated platelets were stimulated with 10 μM of TRAP-6 for the indicated time points, followed by lysis. WIP (FIG. 7A) or WASp (FIG. 7B) were immunoprecipitated from the lysates and analyzed by western blot for co-immunoprecipitation, using anti-WASp, anti-WIP or anti-PKCθ antibodies. WASp immunoprecipitates were immunoblotted for WASp ubiquitylation using anti-ubiquitin (Ub) antibody (FIG. 7C). Ubiquitylated WASp appears as a smear of bands above the MW of 65 kDa with a prominent band at ˜81 kDa. […] Blots are representative of three independent experiments. Meg-01 megakaryocyte cell line was activated in the presence (+) or absence (−) of MG132, followed by lysis (FIG. 7E). WASp ubiquitylation was determined by co-immunoprecipitation analysis as in FIG. 7C. […] PKCθ and WASp protein expression levels were analyzed by western blot with anti-PKCθ and anti-WASp antibodies, and with anti-GAPDH as loading control. Relative protein expression was determined by densitometric analysis and is presented below the corresponding lanes. […]
Insufficient WASp expression in platelets and megakaryocytes is the cause of microthrombocytopenia of WAS/XLT patients (Albert et al 2010, Lutskiy et al, 2007). […] Similarly, reciprocal co-precipitation was detected between WASp and WIP during the first two minutes of activation when WASp was immunoprecipitated (FIG. 7B). […]

The next assay addresses T1, N-WASp (Homo sapiens, UniProt O00401).
T1 construct: expressed in transfected cells; host or cells: HEK 293T, transient transfection; unpurified cell lysate
Kind of assay: MST binding, YFP-N-WASp in HEK 293T cell lysate. The protocol:
Diluted cell lysates of YFP-WASp/N-WASp/WAVE2-expressing HEK 293T cells were incubated with serially-diluted (100 μM-3 nM) SMCs. The mixed lysates and SMCs were then loaded into standard-treated Monolith™ capillaries and the fluorescence of the samples was measured by the Monolith NT.115 instrument at 60% MST power. Binding curves of WASp with SMC #6 (FIG. 3A), SMC #30 (FIG. 3B), SMC #33 (FIG. 3C), SMC #34 (FIG. 3D) and Y-27632 (FIG. 3E) or of N-WASp (FIG. 3F) or WAVE2 (FIG. 3G) with SMC #34 were generated by the NanoTemper Analysis 2.231 software. Normalized fluorescence (hot fluorescence/initial fluorescence) is plotted as a function of SMC concentration. […]
YFP-tagged WASp was obtained from cell lysates of Human Embryonic Kidney (HEK) 293T, transiently transfected with YFP-WASp/WAVE2/N-WASp by DNA-calcium phosphate co-precipitation as previously described (Reicher et al, 2012). […] After loading into the instrument (Monolith NT.115, NanoTemper), the samples were measured by standard protocols at 60% MST power. […] KD values were determined using the NanoTemper analysis software (NT Analysis 1.5.37 or 2.2.31).
Following this in silico screening, the inventors identified eight SMCs (#6, #23, #24, #25, #30, #32, #33, #34, see Table 1). […] The SMCs that specifically bind the degradation pocket of WASp were further evaluated by the inventors.

Peptide text beside a SMILES is read from it. * marks the point of attachment. Cbz = O=C(OCc1ccccc1)*

T1 sequence (O00401 whole entry, species assumed): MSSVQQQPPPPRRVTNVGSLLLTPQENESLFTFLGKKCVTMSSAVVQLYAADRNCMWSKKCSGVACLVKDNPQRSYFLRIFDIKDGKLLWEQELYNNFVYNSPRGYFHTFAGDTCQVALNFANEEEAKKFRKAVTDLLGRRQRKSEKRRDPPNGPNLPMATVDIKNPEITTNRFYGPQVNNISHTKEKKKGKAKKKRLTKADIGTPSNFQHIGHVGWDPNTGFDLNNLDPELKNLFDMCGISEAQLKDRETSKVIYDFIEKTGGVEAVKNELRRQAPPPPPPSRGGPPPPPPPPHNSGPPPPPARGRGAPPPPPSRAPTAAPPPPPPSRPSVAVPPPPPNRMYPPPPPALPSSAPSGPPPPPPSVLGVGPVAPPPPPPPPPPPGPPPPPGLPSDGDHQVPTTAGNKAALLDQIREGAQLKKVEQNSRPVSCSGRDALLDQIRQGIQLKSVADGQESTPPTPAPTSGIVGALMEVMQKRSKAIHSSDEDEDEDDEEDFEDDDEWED

As to `CC(C)C[C@@H](C=O)NC(=O)[C@H](CC(C)C)NC(=O)[C@H](CC(C)C)NC(=O)OCc1ccccc1` [MG132] (Cbz-Leu-Leu-Leu-aldehyde), the WASp ubiquitylation result with WASp is given as “more intense”. `CC1CCCC(C)N1C(=O)CSc1nnc(COc2cccc3cccnc23)o1` (centres unmarked) [SMC #34, 1-(2,6-dimethylpiperidin-1-yl)-2-[[5-(quinolin-8-yloxymethyl)-1,3,4-oxadiazol-2-yl]sulfanyl]ethanone]: at N-WASp, the “binding to N-WASp” value is given as “no binding”.
